Test results published in ChEMBL document CHEMBL3045038, “Structure-based predictive model for some benzimidazole inhibitors of hepatitis C virus NS5B polymerase” (Med Chem Res, 2013).

Molecular target: RNA-directed RNA polymerase (Hepacivirus hominis, UniProt O39930)
Test: Inhibition of Hepatitis C virus genotype 1 NS5B polymerases lacking C-terminal 47 amino acid residues expressed in Escherichia coli after 60 min

SMILES | IC50 [nM]
O=C(O)c1ccc2c(c1)nc(-c1ccc(OCc3cc(N4CCCC4=O)ccc3-c3ccc(Cl)cc3)cc1F)n2C1CCCCC1 | 12
Cc1ncc(COc2ccc(-c3nc4cc(C(=O)O)ccc4n3C3CCCCC3)c(F)c2)c(-c2ccc(Cl)cc2)n1 | 188
CC(=O)NC(=O)c1ccc(-c2ccc(Cl)cc2)c(COc2ccc(-c3nc4cc(C(=O)O)ccc4n3C3CCCCC3)c(F)c2)c1 | 14
NC(=O)c1ccc(-c2ccc(Cl)cc2)c(COc2ccc(-c3nc4cc(C(=O)O)ccc4n3C3CCCCC3)c(F)c2)c1 | 13
